Data published in PMC12078564 (Nature Communications, 2025).

Columns and labels:
CtCGT = experiment: HPLC C-glycosylation assay, Michaelis-Menten fit; format: biochemical, Carthamus tinctorius; settings: read-out: apparent Km; saturated UDP-Glc as sugar donor
[1] = target: Ct2OGD1 (2-oxoglutarate-dependent dioxygenase), purified recombinant, NHS-labelled (Carthamus tinctorius); experiment: MST

| Km (CtCGT) | Kd [1] | Compound |
| --- | --- | --- |
| 284 µM |  | O=C(CCc1ccc(O)cc1)c1c(O)cc(O)c([C@@H]2O[C@H](CO)[C@@H](O)[C@H](O)[C@H]2O)c1O [1a, nothofagin] |
| 1.86 µM |  | O=C(CCc1ccc(O)cc1)c1c(O)cc(O)cc1O [compound 1, phloretin] |
|  | 541 nM | CtCGT (flavonoid di-C-glycosyltransferase, UGT708U8), purified recombinant (enzyme) |
